Measurements taken from PMC9401487 (Clinical Cancer Research, 2021).
Entries after “also recorded” stand apart in the source; their conditions may differ.

System: patients with advanced solid tumors
Experiment: Phase I safety and tolerability
Format: in vivo, human
[1] = Cohort 3 (N=3), 40 mg BID 10 days + carboplatin
[2] = Cohort 3: 40 mg BID days 4–13 (10 days) + carboplatin AUC5, 3 patients
[3] = Cohort 4 (N=3), 40 mg BID 7 days + carboplatin
[4] = Cohort 4: 40 mg BID days 4–10 (7 days) + carboplatin AUC5, 3 patients
[5] = Cohort 5 (N=8), 60 mg QD 7 days + carboplatin

C[C@@H]1COCCN1c1cc(C2([S@](C)(=N)=O)CC2)nc(-c2cc[nH]c3nccc2-3)n1 [ceralasertib]
TEAE Anemia, Grade ≥3 [1]: 0 patients, n (%) | TEAE Any AE, Grade 1–2 [1]: 1 (33) patients, n (%) | TEAE Any AE, Grade ≥3 [1]: 2 (67) patients, n (%) | TEAE Arthralgia, Grade 1–2 [1]: 0 patients, n (%) | TEAE Arthralgia, Grade ≥3 [1]: 0 patients, n (%) | TEAE Aspartate aminotransferase increased, Grade 1–2 [1]: 0 patients, n (%) | TEAE Aspartate aminotransferase increased, Grade ≥3 [1]: 0 patients, n (%) | TEAE Constipation, Grade 1–2 [1]: 1 (33) patients, n (%) | TEAE Constipation, Grade ≥3 [1]: 0 patients, n (%) | TEAE Contusion, Grade 1–2 [1]: 2 (67) patients, n (%) | TEAE Contusion, Grade ≥3 [1]: 0 patients, n (%) | TEAE Cough, Grade 1–2 [1]: 0 patients, n (%) | TEAE Cough, Grade ≥3 [1]: 0 patients, n (%) | TEAE Decreased appetite, Grade 1–2 [1]: 1 (33) patients, n (%) | TEAE Decreased appetite, Grade ≥3 [1]: 0 patients, n (%) | TEAE Diarrhea, Grade 1–2 [1]: 0 patients, n (%) | TEAE Diarrhea, Grade ≥3 [1]: 0 patients, n (%) | TEAE Dizziness, Grade 1–2 [1]: 0 patients, n (%) | TEAE Dizziness, Grade ≥3 [1]: 0 patients, n (%) | TEAE Dyspnea, Grade 1–2 [1]: 0 patients, n (%) | TEAE Dyspnea, Grade ≥3 [1]: 0 patients, n (%) | TEAE Fatigue, Grade 1–2 [1]: 1 (33) patients, n (%) | TEAE Fatigue, Grade ≥3 [1]: 0 patients, n (%) | TEAE Hypocalcemia, Grade 1–2 [1]: 0 patients, n (%) | TEAE Hypocalcemia, Grade ≥3 [1]: 0 patients, n (%) | TEAE Insomnia, Grade 1–2 [1]: 1 (33) patients, n (%) | TEAE Insomnia, Grade ≥3 [1]: 0 patients, n (%) | TEAE Lower respiratory tract infection, Grade 1–2 [1]: 0 patients, n (%) | TEAE Lower respiratory tract infection, Grade ≥3 [1]: 0 patients, n (%) | TEAE Nausea, Grade 1–2 [1]: 0 patients, n (%) | TEAE Nausea, Grade ≥3 [1]: 0 patients, n (%) | TEAE Neutropenia, Grade 1–2 [1]: 1 (33) patients, n (%) | TEAE Neutropenia, Grade ≥3 [1]: 2 (67) patients, n (%) | TEAE Neutrophil count decreased, Grade 1–2 [1]: 0 patients, n (%) | TEAE Neutrophil count decreased, Grade ≥3 [1]: 0 patients, n (%) | TEAE Platelet count decreased, Grade 1–2 [1]: 1 (33) patients, n (%) | TEAE Platelet count decreased, Grade ≥3 [1]: 0 patients, n (%) | TEAE Pyrexia, Grade 1–2 [1]: 0 patients, n (%) | TEAE Pyrexia, Grade ≥3 [1]: 0 patients, n (%) | TEAE Thrombocytopenia, Grade 1–2 [1]: 1 (33) patients, n (%) | TEAE Thrombocytopenia, Grade ≥3 [1]: 2 (67) patients, n (%) | TEAE Upper respiratory tract infection, Grade 1–2 [1]: 0 patients, n (%) | TEAE Upper respiratory tract infection, Grade ≥3 [1]: 0 patients, n (%) | TEAE Vomiting, Grade 1–2 [1]: 0 patients, n (%) | TEAE Vomiting, Grade ≥3 [1]: 0 patients, n (%) | TEAE White blood cell count decreased, Grade 1–2 [1]: 0 patients, n (%) | TEAE White blood cell count decreased, Grade ≥3 [1]: 0 patients, n (%) | Number of DLTs [2]: no DLTs | SRC decision (tolerability) [2]: declared intolerable; also recorded: Not tolerated | TEAE Abdominal pain, Grade 1–2 [3]: 1 (33) patients, n (%) | TEAE Abdominal pain, Grade ≥3 [3]: 0 patients, n (%) | TEAE Alanine aminotransferase increased, Grade 1–2 [3]: 1 (33) patients, n (%) | TEAE Alanine aminotransferase increased, Grade ≥3 [3]: 0 patients, n (%) | TEAE Anemia, Grade 1–2 [3]: 1 (33) patients, n (%) | TEAE Anemia, Grade ≥3 [3]: 1 (33) patients, n (%) | TEAE Any AE, Grade 1–2 [3]: 0 patients, n (%) | TEAE Any AE, Grade ≥3 [3]: 3 (100) patients, n (%) | TEAE Arthralgia, Grade 1–2 [3]: 0 patients, n (%) | TEAE Arthralgia, Grade ≥3 [3]: 0 patients, n (%) | TEAE Aspartate aminotransferase increased, Grade 1–2 [3]: 0 patients, n (%) | TEAE Aspartate aminotransferase increased, Grade ≥3 [3]: 0 patients, n (%) | TEAE Constipation, Grade 1–2 [3]: 1 (33) patients, n (%) | TEAE Constipation, Grade ≥3 [3]: 0 patients, n (%) | TEAE Contusion, Grade 1–2 [3]: 0 patients, n (%) | TEAE Contusion, Grade ≥3 [3]: 0 patients, n (%) | TEAE Cough, Grade 1–2 [3]: 0 patients, n (%) | TEAE Cough, Grade ≥3 [3]: 0 patients, n (%) | TEAE Decreased appetite, Grade 1–2 [3]: 1 (33) patients, n (%) | TEAE Decreased appetite, Grade ≥3 [3]: 0 patients, n (%) | TEAE Diarrhea, Grade 1–2 [3]: 0 patients, n (%) | TEAE Diarrhea, Grade ≥3 [3]: 0 patients, n (%) | TEAE Dizziness, Grade 1–2 [3]: 1 (33) patients, n (%) | TEAE Dizziness, Grade ≥3 [3]: 0 patients, n (%) | TEAE Dyspnea, Grade 1–2 [3]: 0 patients, n (%) | TEAE Dyspnea, Grade ≥3 [3]: 0 patients, n (%) | TEAE Fatigue, Grade 1–2 [3]: 1 (33) patients, n (%) | TEAE Fatigue, Grade ≥3 [3]: 0 patients, n (%) | TEAE Hypocalcemia, Grade 1–2 [3]: 0 patients, n (%) | TEAE Hypocalcemia, Grade ≥3 [3]: 0 patients, n (%) | TEAE Insomnia, Grade 1–2 [3]: 0 patients, n (%) | TEAE Insomnia, Grade ≥3 [3]: 0 patients, n (%) | TEAE Lower respiratory tract infection, Grade 1–2 [3]: 0 patients, n (%) | TEAE Lower respiratory tract infection, Grade ≥3 [3]: 0 patients, n (%) | TEAE Nausea, Grade 1–2 [3]: 2 (67) patients, n (%) | TEAE Nausea, Grade ≥3 [3]: 0 patients, n (%) | TEAE Neutropenia, Grade 1–2 [3]: 1 (33) patients, n (%) | TEAE Neutropenia, Grade ≥3 [3]: 1 (33) patients, n (%) | TEAE Neutrophil count decreased, Grade 1–2 [3]: 0 patients, n (%) | TEAE Neutrophil count decreased, Grade ≥3 [3]: 1 (33) patients, n (%) | TEAE Platelet count decreased, Grade 1–2 [3]: 0 patients, n (%) | TEAE Platelet count decreased, Grade ≥3 [3]: 0 patients, n (%) | TEAE Pyrexia, Grade 1–2 [3]: 1 (33) patients, n (%) | TEAE Pyrexia, Grade ≥3 [3]: 0 patients, n (%) | TEAE Thrombocytopenia, Grade 1–2 [3]: 0 patients, n (%) | TEAE Thrombocytopenia, Grade ≥3 [3]: 3 (100) patients, n (%) | TEAE Upper respiratory tract infection, Grade 1–2 [3]: 0 patients, n (%) | TEAE Upper respiratory tract infection, Grade ≥3 [3]: 0 patients, n (%) | TEAE Vomiting, Grade 1–2 [3]: 0 patients, n (%) | TEAE Vomiting, Grade ≥3 [3]: 0 patients, n (%) | TEAE White blood cell count decreased, Grade 1–2 [3]: 0 patients, n (%) | TEAE White blood cell count decreased, Grade ≥3 [3]: 1 (33) patients, n (%) | Number of DLTs [4]: a DLT of grade 4 thrombocytopenia and grade 3 neutropenia | SRC decision (tolerability) [4]: declared intolerable; also recorded: Not tolerated | TEAE Abdominal pain, Grade 1–2 [5]: 1 (13) patients, n (%) | TEAE Abdominal pain, Grade ≥3 [5]: 0 patients, n (%) | TEAE Alanine aminotransferase increased, Grade 1–2 [5]: 0 patients, n (%) | TEAE Alanine aminotransferase increased, Grade ≥3 [5]: 1 (13) patients, n (%) | TEAE Anemia, Grade 1–2 [5]: 3 (38) patients, n (%) | TEAE Anemia, Grade ≥3 [5]: 3 (38) patients, n (%) | TEAE Any AE, Grade 1–2 [5]: 4 (50) patients, n (%) | TEAE Any AE, Grade ≥3 [5]: 4 (50) patients, n (%)
